56 molecules from PubChem BioAssay AID687005 (Broad Institute, 2013) can be followed below.

Inconclusive results are not listed. Calls of active or inactive are those of the source.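 Rule for the calls: active = Compounds that reduce signal, with fitted half-maximal dose at or under twice the top valid tested dose; inconclusive = Poor fit, or flat curve losing 30 to 70% of signal; inactive = Potency past limit, flat within 30%, or opposite direction.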

The first assay can be described thus: viability loss in HEK293T cells – cell-based, ATP luminescence, cherry-pick samples, cytotoxicity control, dose response (AID 687005). The conditions noted are these: HEK293T viability, ATP luminescence (CellTiter-Glo), 48 h; at 21 µM (top of the series).
Turning to `C[C@@H]1CN([C@H](C)CO)C(=O)Cc2cc(NC(=O)CCCCCC(=O)Nc3ccccc3N)ccc2O[C@H]1CN(C)Cc1ccc2c(c1)OCO2`, the activity change, negative = cytotoxicity was -2.18% (inactive).

The assay is the same for the next values; noted with them: HEK293T viability, ATP luminescence (CellTiter-Glo), 48 h; at 23.5 µM (top of the series).
Turning to `C[C@@H]1CN([C@@H](C)CO)C(=O)c2cc(NS(=O)(=O)c3ccccc3)ccc2O[C@H]1CN(C)C(=O)NC1CCCCC1`, the activity change, negative = cytotoxicity is -17.7% (inactive). Still for that read-out and setting: next, `C[C@@H]1CN([C@H](C)CO)C(=O)c2cc(NC(=O)CCC(F)(F)F)ccc2O[C@@H](C)CCCCO[C@@H]1CN(C)C(=O)c1ccncc1`: -15.4% (inactive). The same measure, in the same setting: next, `CO[C@@H]1CN(C)C(=O)c2ccc(NC(C)=O)cc2OC[C@@H](C)N(C(=O)c2ccccn2)C[C@H]1C`: 14.8% (inactive). The same measure, in the same setting: next, `CC(C)NC(=O)Nc1ccc2c(c1)C(=O)N([C@@H](C)CO)C[C@@H](C)[C@@H](CN(C)C(=O)NC1CCCCC1)OCCCC[C@H](C)O2`: -7.35% (inactive). As to `C[C@H]1CN([C@@H](C)CO)C(=O)Cc2cc(NC(=O)C3CC3)ccc2O[C@@H]1CN(C)C(=O)Nc1cccc2ccccc12`, the activity change, negative = cytotoxicity was -3.99% (inactive). On the same count and under the same terms, next, `N#Cc1ccc(-c2ccc3c(c2)[C@H]2[C@H](CCN2C(=O)Cc2ccccc2)[C@@H](CO)N3)cc1`: -73.4% (inactive); `Cc1ccc(S(=O)(=O)Nc2ccc3c(c2)C(=O)N([C@@H](C)CO)C[C@H](C)[C@H](CN(C)C(=O)Nc2ccc(C(F)(F)F)cc2)O3)cc1`: -1.43% (inactive). Same read-out and setting: next, `C/C=C/c1ccc([C@H]2[C@@H](CO)N(C(=O)CC)[C@@H]2CNC(=O)C2CC2)cc1`: 42.4% (inactive).

`COCCNC(=O)C[C@@H]1C[C@H]2c3cc(NC(=O)C4CCOCC4)ccc3O[C@H]2[C@H](CO)O1`: the activity change, negative = cytotoxicity is 25.9% (inactive).

The assay is the same for the next values; noted with them: HEK293T viability, ATP luminescence (CellTiter-Glo), 48 h; at 26 µM (top of the series).
With `CO[C@H]1CN(C)C(=O)c2cc(NS(=O)(=O)CC(F)(F)F)ccc2OC[C@H](C)N(Cc2cccnc2)C[C@@H]1C`, the activity change, negative = cytotoxicity was 20.5% (inactive).

On to `CCCCNC(=S)N/N=C/c1ccc(C#N)cc1`, for which the activity change, negative = cytotoxicity was -29.9% (inactive).

Turning to `C[C@@H]1CN([C@@H](C)CO)C(=O)c2cccc(NC(=O)C3CC3)c2O[C@@H]1CN(C)C`, the activity change, negative = cytotoxicity was -4.49% (inactive). The same measure, in the same setting: next, `CO[C@H]1CN(C)C(=O)c2cc(NS(=O)(=O)c3ccc(C)cc3)ccc2OC[C@H](C)N(C)C[C@H]1C`: 13.7% (inactive); `C[C@@H]1CN([C@H](C)CO)C(=O)c2cc(NC(=O)Nc3cccc4ccccc34)ccc2O[C@@H](C)CCCCO[C@@H]1CN(C)Cc1ccc2c(c1)OCO2`: -13.2% (inactive). As to `CCNC(=O)C[C@@H]1CC[C@H]2[C@@H](COC[C@@H](O)CN2S(=O)(=O)c2ccccc2F)O1`, the activity change, negative = cytotoxicity is 51.2% (inactive). Same read-out and setting: next, `COc1ccc(CN(C)C[C@@H]2Oc3c(NC(=O)Nc4cccc5ccccc45)cccc3C(=O)N([C@@H](C)CO)C[C@@H]2C)cc1`: -9.75% (inactive). Same read-out and setting: next, `COCC(=O)N(C)C[C@@H]1Oc2ncc(C#CCC3CCCC3)cc2C(=O)N([C@H](C)CO)C[C@H]1C`: 57.2% (inactive); `CC(C)CC#Cc1cnc2c(c1)C(=O)N([C@H](C)CO)C[C@H](C)[C@H](CN(C)C(=O)c1cccnc1)O2`: -8.15% (inactive). As to `O=S1(=O)CCC(N=Cc2cc(Br)ccc2O)C1` (configuration not stated), the activity change, negative = cytotoxicity is 37.7% (inactive). Consider `C[C@@H]1CN([C@@H](C)CO)C(=O)c2cc(/C=C/c3ccccc3)cnc2O[C@@H]1CN(C)S(C)(=O)=O`, for which the activity change, negative = cytotoxicity is 10.2% (inactive).

For the molecule `COc1ccc(NC(=O)Nc2ccc3c(c2)C(=O)N([C@@H](C)CO)C[C@@H](C)[C@H](CN(C)C(=O)Cc2ccccc2)OCCCC[C@H](C)O3)cc1`, the activity change, negative = cytotoxicity is -2.88% (inactive). `Cc1ccc(N(C(=O)C2CCC(=O)N2)C2(C(=O)NC3CCCC3)CCCCC2)cc1` (configuration not stated): the activity change, negative = cytotoxicity is -43.5% (inactive). In the case of `COc1ccc(NC(=O)CSc2ncnc3c2cnn3CCc2ccccc2)cc1`, the activity change, negative = cytotoxicity was -33.3% (inactive). On to `CCC(=O)N1[C@H](CN(C)C(C)=O)[C@@H](c2ccc(C3=CCCCC3)cc2)[C@@H]1CO`, for which the activity change, negative = cytotoxicity was -18.9% (inactive).

On to `COC(=O)N(C)C[C@H]1OCc2cn(nn2)CCCC(=O)N([C@H](C)CO)C[C@@H]1C`, for which the activity change, negative = cytotoxicity was -11% (inactive). Still for that read-out and setting: next, `COc1ccc(NC(=O)N(C)C[C@H]2OCCCC[C@@H](C)Oc3ccc(N(C)C)cc3C(=O)N([C@H](C)CO)C[C@H]2C)cc1`: -1% (inactive); `CCCN(C)C[C@H]1OCCCC[C@@H](C)Oc2ccc(NC(=O)NC(C)C)cc2C(=O)N([C@@H](C)CO)C[C@H]1C`: -9.71% (inactive). On to `Cc1c(C(=O)NC(=S)Nc2ccc(N3CCOCC3)cc2)cccc1[N+](=O)[O-]`, for which the activity change, negative = cytotoxicity is -33.3% (inactive). Still for that read-out and setting: next, `COc1cccc(S(=O)(=O)Nc2ccc3c(c2)[C@@H]2C[C@H](CC(=O)NC4CCCCC4)O[C@H](CO)[C@@H]2O3)c1`: -27.9% (inactive). As for `CCNC(=O)C[C@H]1CC[C@H](NC(=O)NC2CCCCC2)[C@@H](CO)O1`, the activity change, negative = cytotoxicity was -1.55% (inactive). On to `CNC[C@@H]1OCCCC[C@H](C)Oc2ccc(NC(=O)c3ccccc3)cc2C(=O)N([C@@H](C)CO)C[C@@H]1C`, for which the activity change, negative = cytotoxicity is 6.33% (inactive). Still for that read-out and setting: next, `Cc1cccc(NC(=S)NN(Cc2ccccc2)c2ccccc2)c1C`: 25.3% (inactive); `CC(C)NC(=O)Nc1ccc2c(c1)C(=O)N([C@@H](C)CO)C[C@H](C)[C@@H](CN(C)S(=O)(=O)c1cccs1)OCCCC[C@H](C)O2`: -17.5% (inactive). Consider `C[C@@H]1CN([C@H](C)CO)C(=O)c2cc(NS(=O)(=O)c3cn(C)cn3)ccc2O[C@@H](C)CCCCO[C@H]1CN(C)C`, for which the activity change, negative = cytotoxicity is 21.8% (inactive). Consider `C[C@@H]1CN([C@@H](C)CO)C(=O)c2cccc(NC(=O)c3ccncc3)c2O[C@H]1CN(C)C(=O)Nc1ccccc1`, for which the activity change, negative = cytotoxicity is 6.14% (inactive).

For the molecule `CCCNC(=O)C[C@H]1CC[C@H]2[C@@H](COC[C@@H](O)CN2S(=O)(=O)c2ccc(Oc3ccccc3)cc2)O1`, the activity change, negative = cytotoxicity was -8.05% (inactive). Turning to `CCC(C)c1ccc(NC(=S)N2CCN(c3ccccn3)CC2)cc1` (configuration not stated), the activity change, negative = cytotoxicity was 13.7% (inactive). The same measure, in the same setting: next, `C[C@@H]1CN([C@H](C)CO)C(=O)c2cc(C#CC(C)(C)O)cnc2O[C@@H]1CN(C)Cc1cncnc1`: 35.1% (inactive); `CC(C)NC(=O)Nc1cccc2c1O[C@@H](CN(C)C(=O)Nc1ccccc1)[C@@H](C)CN([C@@H](C)CO)C2=O`: -13.9% (inactive); `CCC(=O)N(C)C[C@H]1Oc2cc(-c3ccccc3)ccc2S(=O)(=O)N([C@H](C)CO)C[C@H]1C`: 6.53% (inactive). For `Cc1noc(C)c1NC(=O)N(C)C[C@H]1OCCCC[C@@H](C)Oc2ccc(NC(=O)NC(C)C)cc2C(=O)N([C@H](C)CO)C[C@H]1C`, the activity change, negative = cytotoxicity was -10.9% (inactive). Same read-out and setting: next, `Cc1cccc(-c2ccc([C@H]3[C@H](CO)N4CCCCN(C(=O)c5ccc6c(c5)OCO6)C[C@@H]34)cc2)c1`: 70.3% (inactive). Still for that read-out and setting: next, `CC(C)NC(=O)Nc1ccc2c(c1)C(=O)N([C@@H](C)CO)C[C@@H](C)[C@H](CN(C)Cc1ccncc1)OCCCC[C@@H](C)O2`: 75.6% (inactive). As to `CCCC(=O)N1CCCC1(C)C(=O)Nc1cc(C)ccc1C` (configuration not stated), the activity change, negative = cytotoxicity is 3.87% (inactive). On the same count and under the same terms, next, `O=C(c1cccc(F)c1)N1CCCCN2[C@@H](CO)[C@H](c3ccc(-c4ccncc4)cc3)[C@@H]2C1`: 2.55% (inactive); `COc1cccc(NC(=O)N2C[C@H](O)COC[C@H]3O[C@@H](CC(=O)NCc4ccccc4F)CC[C@@H]32)c1`: -23.2% (inactive).

Turning to `C[C@@H]1CN([C@@H](C)CO)C(=O)c2cccc(NS(=O)(=O)c3ccc(F)cc3)c2O[C@H]1CN(C)S(=O)(=O)c1ccc(Cl)cc1`, the activity change, negative = cytotoxicity is -22.8% (inactive). The same measure, in the same setting: next, `N#Cc1ccc(C23CC4(C2)[C@H](CN(Cc2ccc(-c5ccccc5)cc2)[C@@H]4c2ccccc2)C3c2ccc(C(F)(F)F)cc2)cc1` (some centres not stated): -11.2% (inactive); `COc1ccc(NC(=O)N(C)C[C@H]2OCCCC[C@H](C)Oc3ccc(NC(=O)C4CCCCC4)cc3C(=O)N([C@@H](C)CO)C[C@@H]2C)cc1`: -27.2% (inactive); `CCC(=O)N1[C@@H]2Cn3c(ccc(C4=CCCCC4)c3=O)[C@H]1[C@@H](C(=O)N[C@H](C)c1ccccc1)[C@@H]2CO`: -16.5% (inactive).

Turning to `COc1cccc(S(=O)(=O)Nc2ccc3c(c2)OC[C@H](C)NC[C@@H](C)[C@H](OC)CN(C)C3=O)c1`, the activity change, negative = cytotoxicity is -4.71% (inactive).

As for `C[C@@H]1CN([C@@H](C)CO)C(=O)c2cc(NC(=O)Nc3cccc4ccccc34)ccc2O[C@@H]1CN(C)C(=O)Nc1ccccc1`, the activity change, negative = cytotoxicity was 42.1% (inactive).

On to `COc1ccc(CN(C)C[C@H]2Oc3ccc(NS(C)(=O)=O)cc3CC(=O)N([C@@H](C)CO)C[C@H]2C)cc1`, for which the activity change, negative = cytotoxicity is -1.35% (inactive).

The assay is the same for the next values; noted with them: HEK293T viability, ATP luminescence (CellTiter-Glo), 48 h; at 35 µM (top of the series).
In the case of `Cc1cccc(N2CCN(C(=O)C3CCC(=O)N3C(C)C)CC2C)c1` (configuration not stated), the activity change, negative = cytotoxicity is 21% (inactive).

The same assay, now with this note: HEK293T viability, ATP luminescence (CellTiter-Glo), 48 h; at 42 µM (top of the series).
As to `Cc1ccc(C)c(NC(=O)C2(C)CCCN2C(=O)C(C)C)c1` (configuration not stated), the activity change, negative = cytotoxicity is -23.6% (inactive).

Consider `CCCC(=O)N1CCCC1(C)C(=O)Nc1cc(C)ccc1C` (configuration not stated), for which the activity change, negative = cytotoxicity was -20.6% (inactive).
